± gives the expanded uncertainty stated by the source.
Experiment: mn = molality of the nth substance listed, in mol/kg
Conditions: 101 kPa, Liquid; for mass density: Pycnometric method; for electrical conductivity / speed of sound / viscosity: 313.15 K; for electrical conductivity: Frequency=0.001 MHz, Alternating current cell with electrodes; for speed of sound: Frequency=2 MHz

[Mg+2].[O-][Cl+3]([O-])([O-])[O-].[O-][Cl+3]([O-])([O-])[O-] [magnesium perchlorate] + CO
mass density (311.05 K, m1 = 0.0542): 782.22 ± 3.3 kg/m3 | mass density (311.05 K, m1 = 0.0925): 787.88 ± 5.6 kg/m3 | mass density (311.15 K, m1 = 0.6444): 859.02 ± 33 kg/m3 | mass density (311.4 K, m1 = 0.4313): 831.61 ± 22 kg/m3 | mass density (311.45 K, m1 = 1.059): 911.67 ± 51 kg/m3 | mass density (311.55 K, m1 = 1.395): 949.18 ± 53 kg/m3 | mass density (311.75 K, m1 = 0.1673): 796.89 ± 8.8 kg/m3 | mass density (311.75 K, m1 = 2): 999.04 ± 72 kg/m3 | mass density (312.55 K, m1 = 0.2872): 811.13 ± 13 kg/m3 | mass density (312.6 K, m1 = 0.3228): 815.21 ± 15 kg/m3 | electrical conductivity (m1 = 0.0542): 0.4141 ± 0.0001 S/m | electrical conductivity (m1 = 0.078): 0.6138 ± 0.0001 S/m | electrical conductivity (m1 = 0.0925): 0.6801 ± 0.0001 S/m | electrical conductivity (m1 = 0.1673): 1.04 ± 0.001 S/m | electrical conductivity (m1 = 0.2872): 1.549 ± 0.001 S/m | electrical conductivity (m1 = 0.3228): 1.691 ± 0.001 S/m | electrical conductivity (m1 = 0.4313): 2.119 ± 0.001 S/m | electrical conductivity (m1 = 0.6444): 2.844 ± 0.001 S/m | electrical conductivity (m1 = 1.059): 3.813 ± 0.001 S/m | electrical conductivity (m1 = 1.395): 4.297 ± 0.001 S/m | electrical conductivity (m1 = 1.717): 4.592 ± 0.001 S/m | electrical conductivity (m1 = 2): 4.75 ± 0.001 S/m | speed of sound (m1 = 0.0542): 1062.7 ± 6.3 m/s | speed of sound (m1 = 0.078): 1069.7 ± 6.3 m/s | speed of sound (m1 = 0.0925): 1072.7 ± 6.3 m/s | speed of sound (m1 = 0.1673): 1082.2 ± 6.4 m/s | speed of sound (m1 = 0.2872): 1098.9 ± 6.4 m/s | speed of sound (m1 = 0.3228): 1102.5 ± 6.4 m/s | speed of sound (m1 = 0.4313): 1115.5 ± 6.5 m/s | speed of sound (m1 = 0.6444): 1141.6 ± 6.6 m/s | speed of sound (m1 = 1.059): 1185.5 ± 6.8 m/s | speed of sound (m1 = 1.395): 1224.6 ± 6.9 m/s | speed of sound (m1 = 1.717): 1249.9 ± 7 m/s | speed of sound (m1 = 2): 1273.8 ± 7.1 m/s | viscosity (m1 = 0.0542): 0.4735 ± 0.027 mPa·s | viscosity (m1 = 0.0925): 0.4938 ± 0.028 mPa·s | viscosity (m1 = 0.1673): 0.5284 ± 0.029 mPa·s | viscosity (m1 = 0.2872): 0.5874 ± 0.032 mPa·s | viscosity (m1 = 0.3228): 0.6082 ± 0.033 mPa·s | viscosity (m1 = 0.4313): 0.6824 ± 0.036 mPa·s | viscosity (m1 = 0.6444): 0.7966 ± 0.041 mPa·s | viscosity (m1 = 1.059): 1.119 ± 0.055 mPa·s | viscosity (m1 = 1.395): 1.445 ± 0.069 mPa·s | viscosity (m1 = 1.717): 1.656 ± 0.078 mPa·s | viscosity (m1 = 2): 1.945 ± 0.09 mPa·s | mass density (313.25 K, m1 = 0.4313): 829.89 ± 22 kg/m3 | mass density (313.25 K, m1 = 1.717): 972.12 ± 52 kg/m3 | mass density (313.35 K, m1 = 0.1673): 795.24 ± 8.8 kg/m3 | mass density (313.6 K, m1 = 0.0542): 779.81 ± 3 kg/m3 | mass density (313.75 K, m1 = 1.395): 947.21 ± 42 kg/m3 | mass density (314.05 K, m1 = 0.6444): 856.37 ± 33 kg/m3 | mass density (314.15 K, m1 = 2): 996.96 ± 72 kg/m3 | mass density (314.65 K, m1 = 1.059): 908.74 ± 51 kg/m3 | mass density (315.1 K, m1 = 0.2872): 808.66 ± 13 kg/m3 | mass density (315.2 K, m1 = 0.3228): 812.71 ± 15 kg/m3 | mass density (315.8 K, m1 = 0.1673): 792.81 ± 8.9 kg/m3 | mass density (315.85 K, m1 = 0.6444): 854.66 ± 31 kg/m3 | mass density (315.9 K, m1 = 1.395): 945.34 ± 43 kg/m3 | mass density (316 K, m1 = 0.4313): 827.39 ± 22 kg/m3 | mass density (316.1 K, m1 = 0.0542): 777.42 ± 3 kg/m3 | mass density (316.75 K, m1 = 1.717): 969.14 ± 52 kg/m3 | mass density (317.85 K, m1 = 1.059): 906.01 ± 45 kg/m3 | mass density (317.9 K, m1 = 2): 993.97 ± 73 kg/m3 | mass density (318.5 K, m1 = 0.0542): 774.98 ± 3 kg/m3 | mass density (318.5 K, m1 = 0.6444): 851.96 ± 33 kg/m3 | mass density (318.65 K, m1 = 0.4313): 824.78 ± 23 kg/m3 | mass density (319 K, m1 = 1.717): 967.11 ± 52 kg/m3 | mass density (319.3 K, m1 = 1.395): 942.34 ± 43 kg/m3 | mass density (320.05 K, m1 = 0.0542): 773.35 ± 3 kg/m3 | mass density (320.15 K, m1 = 2): 991.84 ± 73 kg/m3 | mass density (320.2 K, m1 = 0.6444): 850.2 ± 33 kg/m3 | mass density (320.65 K, m1 = 1.059): 903.14 ± 43 kg/m3 | mass density (321.15 K, m1 = 0.4313): 822.18 ± 22 kg/m3 | mass density (322.3 K, m1 = 2): 989.79 ± 73 kg/m3 | mass density (322.35 K, m1 = 1.717): 964.07 ± 57 kg/m3 | mass density (322.45 K, m1 = 1.059): 901.27 ± 48 kg/m3 | mass density (322.5 K, m1 = 1.395): 939.42 ± 53 kg/m3
